According to patent US8012944B2, “Method for treating cancer using IAP antisense oligomer and chemotherapeutic agent” (Pharmascience Inc., priority 2003, dated 2011):

Tested on: XIAP mRNA
Assay: XIAP mRNA knock-down in H460 cells (real-time RT-PCR / TaqMan)
Type: cell-based, human
Conditions: real-time PCR, 1.2 μM, 6 hours of transfection (FIG. 6)
How it was run: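 NCI-H460 cells transfected with phosphorothioate antisense oligonucleotides via Lipofectamine 2000; RNA isolated after 6 h treatment. XIAP mRNA quantified by one-step TaqMan real-time RT-PCR, comparative Ct (threshold 30× baseline SD), normalized to GAPDH and expressed relative to untreated control cells.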

In the case of “GCTGAGTCTCCATATTGCC [G4 AS] (chemistry not given here)”, the “reduction of XIAP mRNA level compared to untreated control” value is reported as 55%.
